{"source": "patent US10106582B2", "about": "“Complex-formation-modulating agents and uses therefor” (Factor Therapeutics Limited, priority 2012, dated 2018)", "assay_type_in_all_cases": "cell-based, human", "key": {"MCF-7 cells [1]": {"test_system": "MCF-7 cells", "assay": "Transwell migration assay, IGF-I+IGFBP-5+VN trimeric complex-stimulated MCF-7 cell migration", "text": "Two motifs (motifs 1 and 8) within native VN, deemed potentially significant in supporting the binding of IGF-II, IGFBP-3 and IGFBP-5, were identified as outlined in the previous section. After preliminary in silico analyses motif 8 (J4-7) was deemed as potentially the most significant region within native VN supporting binding interactions of all the three IGF-II, IGFBP-3 and IGFBP-5 proteins and was chosen for the initial analyses. The VN-peptide covering the sequences of motif 8 was designed such that it covered all the 3AA frameshift sets that contributed to a positive spot within the motif 8 (see, FIG. 3 and Table 7). The sequence of this peptide is RVNLRTRRVDTVDPPYPRS [SEQ ID NO:100] and is designated P8. […] The sequence of that peptide is […] [SEQ ID NO:86] and is designated P7. […] The functional effects of these peptides on IGF-I:IGFBP:VN-stimulated breast cancer cell migration were investigated using Transwell® assays. Transwells® were pre-bound with VN, either alone or in combination with IGF-I and IGFBP-5 (TRI). Treatment with TRI supplemented with increasing concentrations of peptides P7 and/or P8 were assayed. TRI supplemented with Anlg or Neg peptide were included as positive and negative controls of migration inhibition, respectively. All unbound proteins were removed with washing and MCF-7 cell migration was assessed over 15 hours.\nThe Transwell® inserts were prepared by pre-binding the lower chamber and the under-surface of the 8-μm pore membranes with proteins as described below. For all 2D functional assays described throughout this study, including Transwell® the treatments for the pre-binding steps were VN, IGF-I+IGFBP-5+VN (TRI) complex, either alone or in combination with respective controls or VN-peptides. The concentrations of the proteins added into the culture wells were VN, 1 μg/mL; IGF-I, 30 ng/mL and IGFBP-5, 90 ng/mL, unless otherwise stated. The concentration of VN-peptides used are indicated where appropriate.\nOptimal IGF-I:IGFBP-5:VN-mediated attachment and migration of MCF-7 cells in multiwell plates is obtained by pre-binding human native-IGF-I and/or IGFBP-5 and VN at concentrations of 30 ng/mL, 90 ng/mL and 1 μg/mL per well, respectively, to the lower chambers and under surfaces of Transwells®. […] For Anlg, concentrations varying from 30 ng/mL to 300 ng/mL were used.\nTranswells® were prepared by pre-binding the test proteins, either alone or in combinations, to the lower chambers and under-surfaces of Transwells® following procedures previously described (Kricker et al., 2003). Briefly, 0.5 mL DMEM/F12 serum-free phenol-red free medium (SFM) containing 1 μg/mL VN was added to the lower chambers of 24-well, 8-μm pore Transwell® plates and incubated for 3 hours at 37° C. Unbound VN was removed and the wells were washed twice with 0.5 mL SFM+0.5% BSA following which 0.5 mL of SFM+0.5% BSA was placed in the lower chamber to block surfaces with no protein bound. To pre-bind growth factors, 0.5 mL SFM+0.05% BSA containing native IGF-I (30 ng/mL), IGFBP-5 (90 ng/mL) or Anlg, either alone or in combination, were added to the lower chambers of the Transwells® and incubated overnight at 4° C. The solution containing unbound growth factors was removed and the wells were washed twice with SFM+0.05% BSA and replaced with 0.5 mL of SFM+0.05% BSA. Throughout the pre-binding procedure care was taken to keep the upper surface of the Transwell® inserts dry.\nMigration assays were essentially performed following protocols described previously in Leavesley et al 1993, J Cell Biol. 121:163-70. The cells in culture flasks were split 1:1, 24 hours prior to performing the migration assay. The cells were serum-starved for 4 hours and a cell suspension containing 6×10^4 cells in 200 μL SFM+0.05% BSA was seeded onto the upper-surface of the pre-coated Transwell® inserts and incubated for 15 hours at 37° C., 5% CO2 (refer to above for proteins pre-bound and concentrations used). […]"}, "MCF-7 cells [2]": {"test_system": "MCF-7 cells", "assay": "Transwell migration assay, IGF-I+IGFBP-3+VN (TRI)-stimulated MCF-7 cell migration", "procedure": "FIG. 6 is a graphical representation showing MCF-7 cell migration in response to VN peptides. MCF-7 cells were seeded onto the upper-surface of a Transwell inserts coated on the under-surface with treatments containing IGF-I+IGFBP-3+VN (TRI; 10 nM) with or without increasing concentrations of either peptide P7, P8 or Pneg. Migration was assessed after 15 hours. Data is represented as percentage of change in migration compared to the TRI only control. Error bars indicate standard error mean.\nThis assay has been repeated three times with treatments tested in triplicate wells in each replicate experiment.\nThe breast cancer epithelial cell line MCF-7 was used for this assay. Migration was assessed by measuring relative number of cells migrating through 8-μm pore Transwell membranes in response to substrate-bond proteins complexes. IGFBP-3 was allowed to bind either peptide P7, P8 or a combination of P7 and P8 for 2 hours. IGF-I was later added to this protein mix which was then added to Transwells pre-coated with VN. Post-overnight incubation, unbound proteins were removed, Transwells washed twice and cells seeded onto the upper chamber. Cells migrated to the under-surface over 15 hours were indirectly quantified using crystal violet staining."}, "MCF-7 cells [3]": {"test_system": "MCF-7 cells", "assay": "3D Matrigel growth assay of MCF-7 tumor spheroids", "text": "FIG. 7 is a photographic and graphical representation showing MCF-7 3D cell growth in response to peptide antagonists. MCF-7 cells suspended in media containing 1% serum and 2.5% Matrigel (Matrigel media) were layered onto a thin layer of 100% Matrigel. Spheroids were allowed to form in Matrigel media containing VN, TRI or TRI supplemented with peptides P7 and P8. Cells were allowed to grow for 14 days with media+proteins changed every 3 days. (A) Phase contrast and fluorescence microscopy was used to obtain images of the spheroids treated with 90 nM P7, P8 or P7+8. The fluorescent images were subjected to analysis using Image J to calculate spheroid sizes. The images post-ImageJ analyses are depicted in the bottom panel of A. All the images depicted are representative images obtained from triplicate experiments with treatments tested in duplicates in each replicate experiment. Scale bar denotes 100 μm. (B) Scatter plot depicts mean spheroid size (μm^2) at Day 14 for each treatment, calculated using Image-J (90 nM peptide treatments are depicted here). Each data point in the graph is the average size of all spheroids present in a single field of view at 40× magnification. ** denotes p<0.01 and * denotes p<0.05. (C) To measure cell viability/proliferation the 3D culture was treated on Day 14 with 5% Alamar Blue dye for 4 hours and fluorescence intensities were recorded. Error bars indicate SEM. ** denotes p<0.01 Vs TRI and * denotes p<0.05 Vs TRI. The experiment was repeated twice with treatments tested in duplicate wells in each replicate experiment. TRI=IGF-I:IGFBP-5:VN trimeric complex (equimolar at 10 nM concentrations).\nTo closely mimic in vivo conditions, cells were grown in a 3D matrix (Matrigel) closely resembling in vivo extracellular matrix physiology. MCF-7 cells suspended in growth media containing 1% serum and 2.5% Matrigel (Matrigel media) were layered onto a thin layer of 100% Matrigel. Tumor spheroids were allowed to form for 3 days after which spent media was replenished with Matrigel media containing VN only, trimeric complex, or trimeric complex supplemented with increasing concentrations of peptides (P7, P8 or P7+P8). Cells were allowed to grow for additional 11 days with media+proteins changed every 3 days. Spheroid morphology was assessed using phase-contrast microscopy and cell viability was measured using AlamarBlue, a fluorescent metabolic dye."}}}
{"sequence": "RVNLRTRRVDTVDPPYPRS (listed as Homo sapiens) [Peptide P8, human VN motif 8 mimic]", "values": [{"measurement": "MCF-7 cell migration", "setting": "MCF-7 cells [1]; TRI supplemented with peptide at 3× molar concentration of IGFBP-5 (43 ng/mL P7, 38 ng/mL P8), 15 hours", "result": "94.4±1 % of VN"}, {"measurement": "MCF-7 cell migration", "setting": "MCF-7 cells [1]; TRI supplemented with peptide at 9× molar concentration of IGFBP-5, 15 hours", "result": "121.7±8 % of VN"}, {"measurement": "Inhibition of TRI-stimulated MCF-7 cell migration", "setting": "MCF-7 cells [2]; 30 nM peptide dose, TRI 10 nM, 15 hours (most significant inhibition)", "result": "returned to the ‘VN only’ treatment levels"}, {"measurement": "Inhibition of TRI-stimulated MCF-7 cell migration", "setting": "MCF-7 cells [2]; increasing peptide concentrations added to TRI (IGF-I+IGFBP-3+VN; 10 nM), 15 hours", "result": "dose dependent inhibition"}, {"measurement": "TRI-stimulated cell viability (AlamarBlue)", "setting": "MCF-7 cells [3]; 90 nM peptide, Day 14, 3D Matrigel culture", "result": "significantly inhibit"}, {"measurement": "Spheroid size (ImageJ) versus control TRI treatment", "setting": "MCF-7 cells [3]; 90 nM peptide, Day 14, phalloidin staining", "result": "highest inhibitory effects"}, {"measurement": "Size of TRI-treated tumor spheroids (phase-contrast microscopy)", "setting": "MCF-7 cells [3]; increasing concentrations of peptides, Matrigel 3D culture, 14 days", "result": "decrease with increasing concentrations"}]}
